Experimental data: PMC7997411, “Discovery and Optimization of Selective Inhibitors of Meprin α (Part II)” (Pharmaceuticals, 2021)
“And” between values parts separate entries of the source, which are not always exact repeats. Identical values can stand only once. Like-named read-outs stand apart in the source and are kept apart here.

Assays:
meprin α [1] = molecular target: T1, meprin α (Homo sapiens, UniProt Q16819); assay: Meprin α assay in a 384-well plate (fluorogenic substrate Mca-YVADAPK-K(Dnp)); format: biochemical
T1 construct: Strep-tag; made in house; host or cells: BTI-TN-5B1-4 insect cells (baculovirus, amplified in Sf9)
T1 sequence (Q16819 66-746): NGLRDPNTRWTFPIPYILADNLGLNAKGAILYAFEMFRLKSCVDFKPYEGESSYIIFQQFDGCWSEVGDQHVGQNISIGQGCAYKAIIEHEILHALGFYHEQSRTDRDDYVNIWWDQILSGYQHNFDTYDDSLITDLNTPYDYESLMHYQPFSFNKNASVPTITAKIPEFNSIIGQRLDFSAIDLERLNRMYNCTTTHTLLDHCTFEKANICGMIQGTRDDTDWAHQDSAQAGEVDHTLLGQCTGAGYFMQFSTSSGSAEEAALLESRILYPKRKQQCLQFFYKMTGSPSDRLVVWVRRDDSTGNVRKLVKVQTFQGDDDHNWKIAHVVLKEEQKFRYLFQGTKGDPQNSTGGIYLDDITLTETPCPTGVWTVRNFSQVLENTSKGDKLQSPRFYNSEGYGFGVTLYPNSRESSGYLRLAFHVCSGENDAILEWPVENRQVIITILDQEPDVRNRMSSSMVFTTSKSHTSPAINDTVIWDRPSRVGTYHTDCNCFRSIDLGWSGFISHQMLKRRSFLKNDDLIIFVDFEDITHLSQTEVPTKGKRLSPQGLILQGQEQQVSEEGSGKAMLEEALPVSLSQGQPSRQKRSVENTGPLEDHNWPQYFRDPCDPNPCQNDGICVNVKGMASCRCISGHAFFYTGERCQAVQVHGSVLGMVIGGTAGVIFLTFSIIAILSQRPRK
Method: (§1) Recombinant human meprin α and meprin β were expressed using the Bac-to-Bac expression system (Gibco Life Technologies, Paisley, UK) as described before. Media and supplements were obtained from Gibco Life Technologies. Recombinant Baculoviruses were amplified in adherently growing Spodoptera frugiperda (Sf)9 insect cells at 27 °C in Grace’s insect medium supplemented with 10% fetal bovine serum, 50 units/mL penicillin, and 50 μg/mL streptomycin. Protein expression was performed in 500 mL suspension cultures of BTI-TN-5B1-4 insect cells growing in Express Five SFM supplemented with 4 mM glutamine, 50 units/mL penicillin, and 50 μg/mL streptomycin in Fernbach-flasks using a Multitron orbital shaker (INFORS AG, Bottmingen, Switzerland). Cells were infected at a density of 2 × 10^6 cells/mL with an amplified viral stock at a MOI of ~10. […] Meprins were activated by trypsin, which was removed afterwards by affinity chromatography using a column containing immobilized chicken ovomucoid, a trypsin inhibitor.
(§2) Both assays followed the same general protocol. […] After 30 min incubation at RT, the reactions were started by addition of 5 µL of 2× solutions of substrates (20 µM, meprin α Mca-YVADAPK-K(Dnp), and for meprin β Mca-EDEDED-K(Dnp)).

human meprin β = molecular target: T2, human meprin β (Homo sapiens, UniProt Q16820); assay: Meprin β assay in a 384-well plate (fluorogenic substrate Mca-EDEDED-K(Dnp)); format: biochemical
T2 construct: His-tag; made in house; host or cells: BTI-TN-5B1-4 insect cells (baculovirus, amplified in Sf9)
T2 sequence (Q16820 62-701): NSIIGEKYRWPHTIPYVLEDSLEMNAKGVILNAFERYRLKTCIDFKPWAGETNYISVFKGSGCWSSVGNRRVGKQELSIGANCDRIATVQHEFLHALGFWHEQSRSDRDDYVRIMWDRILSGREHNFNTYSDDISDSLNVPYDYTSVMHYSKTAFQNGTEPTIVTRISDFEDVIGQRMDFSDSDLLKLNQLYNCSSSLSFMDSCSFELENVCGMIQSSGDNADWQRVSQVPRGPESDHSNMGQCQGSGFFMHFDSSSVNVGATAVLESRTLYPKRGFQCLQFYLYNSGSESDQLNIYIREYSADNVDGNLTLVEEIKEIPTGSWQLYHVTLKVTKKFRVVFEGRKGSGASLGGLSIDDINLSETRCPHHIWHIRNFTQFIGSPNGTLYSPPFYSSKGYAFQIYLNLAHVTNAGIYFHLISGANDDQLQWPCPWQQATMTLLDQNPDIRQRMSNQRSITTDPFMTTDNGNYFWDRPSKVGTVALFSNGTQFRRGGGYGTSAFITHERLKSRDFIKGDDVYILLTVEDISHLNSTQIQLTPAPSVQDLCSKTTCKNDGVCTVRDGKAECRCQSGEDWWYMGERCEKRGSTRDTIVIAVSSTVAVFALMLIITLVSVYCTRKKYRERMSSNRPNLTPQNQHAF
Method: as §1, §2

MMP13 = molecular target: T3, MMP13 (Homo sapiens, UniProt P45452); details: single value given, at 10 μM ref 11; cited from earlier work
T3 construct: purchased R&D Systems 511-MM

MMP9 = molecular target: T4, MMP9 (Homo sapiens, UniProt P14780); details: single value given, at 10 μM ref 11; cited from earlier work
T4 construct: purchased R&D Systems 911-MP
T4 sequence (P14780 94-707): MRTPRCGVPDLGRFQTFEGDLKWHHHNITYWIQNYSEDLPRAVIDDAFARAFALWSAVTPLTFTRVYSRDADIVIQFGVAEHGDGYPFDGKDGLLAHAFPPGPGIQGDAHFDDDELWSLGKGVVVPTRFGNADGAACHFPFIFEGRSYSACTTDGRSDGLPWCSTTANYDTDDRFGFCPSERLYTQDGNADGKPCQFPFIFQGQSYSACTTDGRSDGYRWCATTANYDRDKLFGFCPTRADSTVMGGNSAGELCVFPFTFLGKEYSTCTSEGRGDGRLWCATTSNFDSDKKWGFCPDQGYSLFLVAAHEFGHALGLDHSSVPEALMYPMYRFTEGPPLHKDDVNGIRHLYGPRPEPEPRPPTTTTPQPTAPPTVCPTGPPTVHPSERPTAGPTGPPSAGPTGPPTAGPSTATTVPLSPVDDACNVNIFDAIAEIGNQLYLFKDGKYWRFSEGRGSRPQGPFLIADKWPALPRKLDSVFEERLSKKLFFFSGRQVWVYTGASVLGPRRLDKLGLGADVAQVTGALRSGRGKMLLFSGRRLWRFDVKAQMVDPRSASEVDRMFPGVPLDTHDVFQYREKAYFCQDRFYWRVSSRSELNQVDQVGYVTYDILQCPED

ADAM10 = molecular target: T5, ADAM10 (Homo sapiens, UniProt O14672); details: single value given, at 10 μM ref 11; cited from earlier work
T5 construct: purchased R&D Systems 936-AD
T5 sequence (O14672 214-748): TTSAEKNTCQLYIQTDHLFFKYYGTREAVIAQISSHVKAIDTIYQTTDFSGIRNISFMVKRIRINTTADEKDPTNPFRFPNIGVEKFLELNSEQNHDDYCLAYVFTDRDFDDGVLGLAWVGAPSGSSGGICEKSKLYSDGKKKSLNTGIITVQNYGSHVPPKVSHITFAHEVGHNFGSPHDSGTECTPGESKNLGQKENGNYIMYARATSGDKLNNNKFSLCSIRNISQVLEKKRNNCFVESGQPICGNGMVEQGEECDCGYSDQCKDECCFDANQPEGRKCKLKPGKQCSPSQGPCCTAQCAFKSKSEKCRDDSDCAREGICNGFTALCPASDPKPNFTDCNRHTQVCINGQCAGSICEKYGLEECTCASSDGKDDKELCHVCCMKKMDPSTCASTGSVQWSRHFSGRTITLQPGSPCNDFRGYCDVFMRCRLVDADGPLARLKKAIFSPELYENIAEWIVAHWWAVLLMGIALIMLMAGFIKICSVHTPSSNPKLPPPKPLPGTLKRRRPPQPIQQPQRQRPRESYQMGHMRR

MMP2 = molecular target: T6, MMP2 (Homo sapiens, UniProt P08253); details: single value given, at 10 μM ref 11; cited from earlier work
T6 construct: purchased R&D Systems 902-MP
T6 sequence (P08253 110-660): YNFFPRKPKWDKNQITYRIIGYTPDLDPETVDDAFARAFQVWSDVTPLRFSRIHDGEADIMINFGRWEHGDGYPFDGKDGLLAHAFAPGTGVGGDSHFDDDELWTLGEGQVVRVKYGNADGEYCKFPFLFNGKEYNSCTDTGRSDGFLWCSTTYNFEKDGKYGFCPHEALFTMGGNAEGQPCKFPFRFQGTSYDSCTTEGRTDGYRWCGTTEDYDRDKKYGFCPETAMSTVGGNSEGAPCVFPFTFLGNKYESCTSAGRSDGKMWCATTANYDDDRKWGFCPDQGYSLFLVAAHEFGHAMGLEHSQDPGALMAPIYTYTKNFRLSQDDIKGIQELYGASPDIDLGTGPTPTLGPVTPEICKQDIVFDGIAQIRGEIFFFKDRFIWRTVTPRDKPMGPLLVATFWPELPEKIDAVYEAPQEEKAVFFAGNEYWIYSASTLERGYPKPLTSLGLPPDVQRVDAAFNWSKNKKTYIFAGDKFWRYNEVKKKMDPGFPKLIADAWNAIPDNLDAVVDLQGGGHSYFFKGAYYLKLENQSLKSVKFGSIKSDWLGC

Meprin α [2] = details: cited from earlier work
ADAM17 = molecular target: T7, ADAM17 (Homo sapiens, UniProt P78536); details: single value given, at 10 μM ref 11; cited from earlier work
T7 construct: purchased R&D Systems 930-ADB
T7 sequence (P78536 215-824): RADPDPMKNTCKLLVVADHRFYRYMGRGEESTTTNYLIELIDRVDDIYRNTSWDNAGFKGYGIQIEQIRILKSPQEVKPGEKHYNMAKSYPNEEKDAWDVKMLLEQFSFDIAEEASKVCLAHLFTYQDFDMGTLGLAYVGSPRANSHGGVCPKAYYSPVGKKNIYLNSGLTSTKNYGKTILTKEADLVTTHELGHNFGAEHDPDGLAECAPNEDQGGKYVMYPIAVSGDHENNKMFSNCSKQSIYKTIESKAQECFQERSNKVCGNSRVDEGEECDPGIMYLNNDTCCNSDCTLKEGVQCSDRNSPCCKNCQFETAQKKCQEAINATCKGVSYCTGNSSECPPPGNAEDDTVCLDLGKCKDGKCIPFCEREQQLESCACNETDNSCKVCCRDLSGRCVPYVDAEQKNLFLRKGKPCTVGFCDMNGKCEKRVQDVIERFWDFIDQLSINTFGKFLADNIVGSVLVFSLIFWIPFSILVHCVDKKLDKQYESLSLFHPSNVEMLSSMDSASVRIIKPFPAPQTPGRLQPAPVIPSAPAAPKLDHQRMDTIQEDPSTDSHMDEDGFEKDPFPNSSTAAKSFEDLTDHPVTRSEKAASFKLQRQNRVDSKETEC

SMILES | IC50 (meprin α [1]; triplicate, ± SD) | IC50 (human meprin β; triplicate, ± SD) [µM] | also measured
COc1cc(OC)nc(SCc2nnc(SCC(=O)NO)n2-c2ccc(N3CCOCC3)cc2)n1 [SR26466, 2-((5-(((4,6-dimethoxypyrimidin-2-yl)thio)methyl)-4-(4-morpholinophenyl)-4H-1,2,4-triazol-3-yl)thio)-N-hydroxyacetamide] | 1.1 ± 0.1 µM | > 100 | 
COc1cc(OC)nc(SCc2nnc(SCC(=O)NO)n2-c2ccc(C(F)(F)F)cc2)n1 [SR24003, 2-((5-(((4,6-dimethoxypyrimidin-2-yl)thio)methyl)-4-(4-(trifluoromethyl)phenyl)-4H-1,2,4-triazol-3-yl)thio)-N-hydroxyacetamide] | 5.4 ± 1.2 µM | > 100 | 
COc1cc(OC)nc(SCc2nnc(SCC(=O)NO)n2-c2ccc(Br)cc2)n1 [SR24462, 2-((4-(4-bromophenyl)-5-(((4,6-dimethoxypyrimidin-2-yl)thio)methyl)-4H-1,2,4-triazol-3-yl)thio)-N-hydroxyacetamide] | 11.2 ± 2.6 µM | > 100 | 
COc1ccc(-n2c(CSc3nc(C)cc(C)n3)nnc2SCC(=O)NO)cc1 [SR24139, 2-((5-(((4,6-dimethylpyrimidin-2-yl)thio)methyl)-4-(4-methoxyphenyl)-4H-1,2,4-triazol-3-yl)thio)-N-hydroxyacetamide] | 4.1 ± 0.8 µM | 60 ± 7 | 
COc1cc(OC)nc(SCc2nnc(SCC(=O)NO)n2-c2ccc(F)cc2)n1 [SR24463, 2-((5-(((4,6-dimethoxypyrimidin-2-yl)thio)methyl)-4-(4-fluorophenyl)-4H-1,2,4-triazol-3-yl)thio)-N-hydroxyacetamide] | 10.4 ± 2.8 µM | > 100 | 
COc1ccc(-n2c(CSc3nc(OC)cc(OC)n3)nnc2SCC(=O)NO)cc1 [SR24144, 2-((5-(((4,6-dimethoxypyrimidin-2-yl)thio)methyl)-4-(4-methoxyphenyl)-4H-1,2,4-triazol-3-yl)thio)-N-hydroxyacetamide] | 8.7 ± 1.1 µM | > 100 | inhibition of meprin β at 100 μM (in words) (human meprin β; 100 μM): complete lack of inhibition
COc1cc(OC)nc(SCc2nnc(SCC(=O)NO)n2-c2ccccc2OC)n1 [SR24459, 2-((5-(((4,6-dimethoxypyrimidin-2-yl)thio)methyl)-4-(2-methoxyphenyl)-4H-1,2,4-triazol-3-yl)thio)-N-hydroxyacetamide] | 12.1 ± 3.9 µM | 52 ± 1 | 
COc1cc(OC)nc(SCc2nnc(SCC(=O)NO)n2-c2cccc(C)c2)n1 [SR24467, 2-((5-(((4,6-dimethoxypyrimidin-2-yl)thio)methyl)-4-(m-tolyl)-4H-1,2,4-triazol-3-yl)thio)-N-hydroxyacetamide] | 2 µM and 10.3 µM | > 100 | 
COc1cc(OC)nc(SCc2nnc(SCC(=O)NO)n2-c2cccc3ccccc23)n1 [SR26467, 2-((5-(((4,6-dimethoxypyrimidin-2-yl)thio)methyl)-4-(naphthalen-1-yl)-4H-1,2,4-triazol-3-yl)thio)-N-hydroxyacetamide] | 2 ± 0.3 µM | > 100 | 
O=C(CN(Cc1ccc(Cl)c(O)c1F)Cc1ccc(Cl)c(O)c1F)NO [1c] |  |  | MMP13 % activity remaining (MMP13): 86%; MMP9 % activity remaining (MMP9): 91%; ADAM10 % activity remaining (ADAM10): 86%; MMP2 % activity remaining (MMP2): 95%; IC50 (Meprin α [2]): 190 ± 1 nM; ADAM17 % activity remaining (ADAM17): 86%
O=C(CSc1nnc(NC(=O)COc2ccccc2)s1)NO [SR19848] |  |  | IC50 (meprin α [1]): 0.217 µM; meprin α/β selectivity (in words) (meprin α [1]; Figure 1): no meprin α/β selectivity; IC50 (human meprin β): 0.329 µM
COc1cccc(-n2c(CSc3nc(OC)cc(OC)n3)nnc2SCC(=O)NO)c1 [SR24460, 2-((5-(((4,6-dimethoxypyrimidin-2-yl)thio)methyl)-4-(3-methoxyphenyl)-4H-1,2,4-triazol-3-yl)thio)-N-hydroxyacetamide] | 10.3 ± 1.1 µM | 59 ± 10 | 
CCN(CC)c1ccc(-n2c(CSc3nc(OC)cc(OC)n3)nnc2SCC(=O)NO)cc1 [SR26465, 2-((4-(4-(diethylamino)phenyl)-5-(((4,6-dimethoxypyrimidin-2-yl)thio)methyl)-4H-1,2,4-triazol-3-yl)thio)-N-hydroxyacetamide] | 0.6 ± 0.06 µM | 75 ± 15 | meprin α/β fold selectivity (ratio of IC50 values) (meprin α [1]; meprin α over meprin β): > 100 fold
COc1cc(OC)nc(SCc2nnc(SCC(=O)NO)n2-c2cccnc2)n1 [SR24718, 2-((5-(((4,6-dimethoxypyrimidin-2-yl)thio)methyl)-4-(pyridin-3-yl)-4H-1,2,4-triazol-3-yl)thio)-N-hydroxyacetamide] | 10.1 ± 2.3 µM | > 100 | 
